A word on the half-life: it is the time in which the quantity being followed falls by half. Higher therefore signals slow decline.

93 compounds from PubChem BioAssay AID1508591 can be followed below.

The conditions of this series: rat; liver microsomes; pH 7.4; 15.0 min; 1.0 µM.

`CN(C)c1ccccc1-c1csc(N2CCC(C(N)=O)CC2)n1`: the half-life was determined as 9.95 min. As for `CCS(=O)(=O)c1ncc(N(Cc2ccc(F)cc2)Cc2ccco2)c(C(=O)Nc2cc(C)ccc2C)n1`, the half-life came to 3.51 min. In the case of `CCOc1ccc(CCNC(=O)c2cc3sccc3n2Cc2ccccc2)c(F)c1OCC` it was 1.8 min. With `CC(C)(C)c1ccc(C(=O)Nc2cn3cc(-n4ccnc4)ccc3n2)cc1` the figure was over 30 min; with `COCCNC(=O)[C@H]1C[C@H](Oc2ccccc2)CN1Cc1ccc2[nH]ccc2c1`, 0.97 min.

As for `COc1cccc(-c2csc(NC(=O)c3ccncc3NS(=O)(=O)c3ccc(C)cc3)n2)c1`, the half-life amounted to 1.85 min.

Take `O=C(Nc1cccc(C(F)(F)F)c1)Nc1cc(S(=O)(=O)NC2CC2)ccc1-c1ccsc1`: the half-life was found to be 5.65 min.

Compound `COc1ccc(NC(=O)c2c(C)cccc2C)cc1[S+](=O)([O-])N1CCCCC1` returned a half-life of 4.2 min. Compound `O=[S+]([O-])(Nc1ccc(N2CCNCC2)cc1)c1ccc(NCc2ccc(Cl)cc2O)cc1` had a half-life of over 30 min. In the case of `COc1cc(OC)c2c(=O)[nH]c(-c3cc(C)c(OCCO)c(C)c3)nc2c1` it was over 30 min; in that of `Cn1cc(Br)c(C2N=C(Nc3nc4ccccc4o3)NC3=C2C(=O)CCC3)n1` (stereo not drawn), 8.5 min; in that of `Cc1ccc(S(=O)(=O)n2cc(C(=O)Nc3nc(-c4ccccc4)cs3)c3ccccc32)cc1`, 23 min. In the case of `CCOc1ccc(CCNC(=O)c2cc3ccncc3n2Cc2cccc(C)c2)cc1OCC` it was 7.1 min; in that of `Cc1ccc(OCCn2c(CCNC(=O)c3ccc(Cl)cc3)nc3ccccc32)cc1`, 1.8 min. With `COc1cccc(C(=O)Nc2nc(-c3nnn(-c4ccccc4C(F)(F)F)c3C)ns2)c1` the figure was over 30 min. For `CCN1CCC(N(Cc2ccc3c(c2)OCO3)C(=O)Nc2cc(Cl)ccc2C(=O)OC)CC1`, the half-life was 6.72 min. With `NC(=O)C1CCN(c2ncc(-c3cccc(N4CCCC4)c3)s2)CC1` the figure was 15 min; with `Oc1ccc(-c2nc(C3CC3)nc3c2CCN(Cc2ccc(F)cc2)CC3)cc1`, 2.02 min; with `Fc1cc(Nc2nc(-c3ccncc3)nc3ccccc23)ccc1-c1ccnc(C(F)(F)F)c1`, 8.6 min. Turning to `COc1ccc(-c2cc(-c3cccc4[nH]ncc34)cn3cncc23)cn1`, the half-life was 9.28 min. With `Cc1cccc2nc(-c3ccccn3)c(Nc3ccc(F)cc3)n12` the figure was 6.75 min. `CC(C)CCNC(=O)[C@H](CC(C)C)NC(=O)[C@H]1O[C@@H]1C(=O)O` came in with a half-life of over 30 min. In the case of `COc1ccc(-c2ccc3nc(-c4cc(F)ccc4F)oc3c2)c(OC)c1OC` it was over 30 min; in that of `CC(C)NC(=O)c1nc(-c2ccc(Cl)nc2)c2cnccn12`, over 30 min. On to `Cc1ccc(Nc2nc(C)c(NC(=O)c3ccc(C)cc3)c(Nc3ccc(C)cc3)n2)cc1`, for which the half-life is 20.1 min. With `COc1ccc2c(c1)N(C[C@H](C)CN(C)C)c1ccccc1S2` the figure was 2.07 min. Compound `COCCCOc1ccnc(CS(=O)c2nc3ccccc3[nH]2)c1C` (stereo not drawn) registered a half-life of 8.83 min. In the case of `COCCNCc1ccc(-c2cc3nccc(Oc4ccc(NC(=O)C5(C(=O)Nc6ccc(F)cc6)CC5)cc4F)c3s2)nc1` it was 14.8 min. With `CC(C)(C)c1ccc(C(=O)Nc2ccc3c(c2)CCCN3C(=O)c2cccs2)cc1` the figure was 2.33 min. With `COc1cc(Cl)c(C)cc1NS(=O)(=O)c1c(C)nc2sccn2c1=O` the figure was 1.53 min; with `CCc1ccc(-n2nc(C)c3c2NC(=O)CSC3c2ccccc2C)cc1` (stereo not drawn), 2.44 min; with `OCCOCCN1CCN(C(c2ccccc2)c2ccc(Cl)cc2)CC1` (stereo not drawn), 5.93 min. On to `CC1CCC(NC(=O)c2ccc3c(c2)N(Cc2ccccc2F)C(=O)c2ccccc2S3)CC1` (stereo not drawn), for which the half-life came to 2.12 min. In the case of `CN1CCCN(C(c2ccccc2)c2ccc(Cl)cc2)CC1` (stereo not drawn) it was 2.89 min; in that of `CNc1sc(-c2cccc3ccccc23)nc1C#N`, 12.9 min; in that of `NC(=O)C1CCN(c2nc(-c3cccc4ccccc34)cs2)CC1`, 4.72 min. In the case of `c1ccc(-c2nc(N3CCCCCC3)c3ccccc3n2)nc1` it was 2.18 min; in that of `Cc1cc(C)nc(NC(=S)N2CCN(c3ccc(C(F)(F)F)cc3Cl)CC2)c1`, over 30 min. On to `Cn1c(CN2CCCCC2)nc2cc(NC(=O)c3cccc(Br)c3)ccc21`, for which the half-life was over 30 min. In the case of `N#Cc1cccc(NC(=O)c2sc3nc4c(cc3c2N)N2CCC4CC2)c1` it was 25.6 min; in that of `COc1ccccc1N1CCN(c2ccc3cc(S(=O)(=O)N4CCCCC4)ccc3n2)CC1`, 2.16 min. With `COc1cccc(NS(=O)(=O)c2ccc(C)cc2)c1C(=O)Nc1nc(-c2ccccc2)cs1` the figure was 3.7 min. In the case of `c1ccc(-c2cn[nH]c2)cc1` it was 13.1 min; in that of `CCOc1cccc(C(=O)Nc2nc3c(s2)CC(C(C)(C)C)CC3)c1` (stereo not drawn), 9.74 min. In turn, `O=S(=O)(c1ccc(Cl)cc1)c1ccccn1` displayed a half-life of over 30 min. With `O=C(O)c1ccnc(-c2cc(C(=O)NCCc3ccccc3)ccn2)c1` the figure was over 30 min; with `Cn1cc(Cl)c(C2N=C(Nc3nc4ccccc4o3)NC3=C2C(=O)CCC3)n1` (stereo not drawn), 7.84 min; with `Cc1ccc(S(=O)(=O)Nc2ccc(C)cc2C(=O)Nc2nc(-c3ccccc3)cs2)cc1`, 3.7 min. With `COc1ccc(C2c3c(ncn(CCN4CCOCC4)c3=N)Oc3ccc4ccccc4c32)cc1OC` (stereo not drawn) the figure was 3.6 min; with `O=C1CCCC2=C1C(c1ccncc1Br)N=C(Nc1nc3ccccc3o1)N2` (stereo not drawn), 6.5 min; with `NC(=O)C1CCN(c2ncc(-c3cccc(F)c3)s2)CC1`, 9.48 min. As to `Cc1ccc(S(=O)(=O)Nc2ccccc2C(=O)Nc2cnc(-c3ccccc3)cn2)cc1`, the half-life worked out at 3.5 min. `COc1ccc(NC(=O)c2c(C)c(C(C)=O)c(C)n2C)cc1S(=O)(=O)Nc1ccc(Br)cc1` registered a half-life of 5.9 min.

Take `COC12C(COC(N)=O)C3=C(C(=O)C(C)=C(N)C3=O)N1CC1C2N1C` (stereo not drawn): the half-life was over 30 min. In the case of `OCc1ccc(-c2ccc(-c3ccc(CO)s3)o2)s1` it was 6.18 min; in that of `O=C(O)[C@H]1O[C@H]1C(=O)O`, 14.7 min. In the case of `O=C(Nc1ccccc1)C1CC(=O)N(c2n[nH]c3cc(Br)ccc23)C1` (stereo not drawn) it was over 30 min. As for `CC(C)c1ccccc1-c1ncc(F)c(NC(C)(C)c2ccc(-c3cccnc3)cc2)n1`, the half-life turned out to be 2.3 min. In the case of `COc1cccc(-c2nc3cc(NC(=O)c4ccc(C)c([N+](=O)[O-])c4)ccc3o2)c1` it was over 30 min; in that of `CCOc1ccc(Nc2nc(C)c(NC(=O)c3ccc(C)cc3)c(Nc3ccc(OCC)cc3)n2)cc1`, 8.86 min; in that of `CC(C)COc1ccc(-c2ccc(=O)n(CC(=O)NCCc3ccccc3)n2)cc1`, 1.8 min. In the case of `Nc1c(-c2ccncc2)cc[nH]c1=O` it was over 30 min. With `CC(=O)Nc1ccc(S(=O)(=O)Nc2nccs2)cc1` the figure was over 30 min; with `O=C(NCC1CCOCC1)C1CC(=O)N(c2n[nH]c3cc(Br)ccc23)C1` (stereo not drawn), over 30 min. Regarding `COc1ccc(CNc2ccc(S(=O)(=O)Nc3nccs3)cc2)c(O)c1`, the half-life was 3.9 min.

The compound `COc1cccc(CNc2ccc(C(=O)Nc3nccs3)cc2)c1O` returned a half-life of over 30 min.

Turning to `COc1cccc(C(=O)Nc2ccc3oc(-c4ccc5ccccc5c4)nc3c2)c1`, the half-life was 27.9 min. In the case of `CCN(CC)S(=O)(=O)c1ccc2oc(C(=O)Nc3ccc(Br)cc3F)c(C)c2c1` it was 7.91 min.

With `CC(C)(C)C1CCc2c(sc(NC(=O)c3ccncc3)c2C(N)=O)C1` (stereo not drawn), the half-life is over 30 min. For `Cc1ccc(N2CCC(CNc3nc(-c4ccccc4C(C)C)ncc3C)CC2)cn1`, the half-life was 2.6 min. In the case of `Cc1ccc(NC2=C(c3ccc(C(F)(F)F)cc3)C(=O)c3ccccc32)cc1C` it was 5.08 min.

For `CCN1CCN(c2ccc3cc(S(=O)(=O)N4CCOCC4)ccc3n2)CC1`, the half-life was determined as 16 min. In the case of `Cc1cccc(C)c1C(=O)Nc1cccc([S+](=O)([O-])N2CCCCCC2)c1` it was 1.6 min; in that of `Cc1cc(NS(=O)(=O)c2ccc(NC(=O)Cc3ccc(F)c(Cl)c3)cc2)no1`, over 30 min.

As to `O=C([C@@H]1CCCN(c2ccc3[nH]c(C4(n5cc(Cl)cn5)CC4)nc3n2)C1)N1CCCC1`, the half-life was over 30 min. In the case of `O=C(Nc1ccc(Cl)cc1Cl)c1cnc2ccccc2n1`, the half-life amounted to 3 min. `Cc1ccc(C)c(SC2=NS(=O)(=O)c3ccccc32)c1` displayed a half-life of 1.21 min. In the case of `CCOC(=O)c1ccnc(CNCC(=O)N(CC)CCN(C)C)c1` it was over 30 min; in that of `O=S(=O)(Nc1nc2ccccc2s1)c1ccc(NCc2ccc(Br)cc2O)cc1`, over 30 min.

As to `COc1ccc(C2=Nc3ccc(Br)cc3C(c3ccccc3)N2CC(=O)NN)cc1` (stereo not drawn), the half-life turned out to be 8.16 min.

`NC(=O)COc1cccc(C2CC(=O)Nc3nc(N4CCCCC4)sc32)c1` (stereo not drawn) had a half-life of 5.1 min. In the case of `COc1cncc(Nc2ncc(-c3cccc(N(C)C)c3)c3c2OCC3)c1` it was 11.7 min; in that of `O=c1c2c([nH]c3ccc(Br)cc13)CCCC2`, 15.9 min. In the case of `Brc1ccc(-c2csc(N3CCCCC3)n2)cc1` it was 3.45 min; in that of `FC(F)(F)c1cccc(N2CCN(C(=S)Nc3nccc4ccccc34)CC2)c1`, over 30 min. With `FC(F)(F)c1ccccc1-c1nc(NCc2ccc(-c3cccnc3)cc2)c2ccccc2n1` the figure was 9.18 min.

As for `CCN1CCN(C(=O)CCCn2nc(C)c3c(C)n(-c4ccc(C)cc4)nc3c2=O)CC1`, the half-life is 22.2 min. In the case of `Cc1nc(Nc2n[nH]c3c2CN(C(=O)N[C@H](CN(C)C)c2ccccc2)C3(C)C)c2sccc2n1` it was 21.9 min; in that of `COC(=O)c1cc2occc2n1Cc1nc(-c2ccc(C)cc2)oc1C`, 3.86 min; in that of `O=c1n(-c2ccc(Cl)cc2)nc2n1CCN(Cc1ccc(C(F)(F)F)cc1)C2`, over 30 min. With `O=C1CCCC2=C1C(c1ncccc1Br)N=C(Nc1nc3ccccc3o1)N2` (stereo not drawn) the figure was 11.4 min.

For `NC(=O)C1CCN(c2nc(-c3ccc(N4CCCCC4)nc3)cs2)CC1`, the half-life stood at 17.2 min.

In turn, `Cc1ccc(C(=O)Nc2nc3nc(C)cc(=O)n3[nH]2)cc1` registered a half-life of over 30 min.
